According to patent EP3409761B1, “CULTURE MEDIUM COMPOSITION, AND METHOD FOR CULTURING CELL OR TISSUE USING SAID COMPOSITION” (Nissan Chemical Corporation, priority 2012, dated 2014):
Starred links: 1 amine or outer side, 2 acyl side, 3 side chain; linkers in the order of their positions; H or OH if unused. Positions of bridges follow the written chain, without caps; N, C: chain ends. Non-standard residues stand in square brackets, D forms with d. Residues, ends and D or L forms follow the SMILES beside them. Chains are numbered I, II in the order given. Actinocin(9to1) = Cc1c2oc3c(C)ccc(C(=O)[*:1])c3nc-2c(C(=O)[*:2])c(N)c1=O; NMeV = CN[C@H](C(=O)O)C(C)C; Sar = CNCC(=O)O

Assays:
Assay type in all cases: cell-based
[1] = tested on: human cervical cancer cell line HeLa; test: Comparison with single layer culture method using agent for inducing apoptosis; conditions: day 4
Procedure: This aqueous solution was sterilized at 121°C for 20 min in an autoclave. […] Each plate was cultured by being stood still in a CO2 incubator (37°C, 5% CO2). […] To the culture medium on day 4 was added an ATP reagent (150 µL) (CellTiter-Glo (registered trade mark) Luminescent Cell Viability Assay, manufactured by Promega) to give a suspension, which was stood for about 10 min at room temperature, and the luminescence intensity (RLU value) was measured by FlexStation3 (manufactured by Molecular Devices), and the number of viable cells was measured by subtracting the luminescence value of the medium alone. For WST-8 measurement, a WST-8 solution (manufactured by DOJINDO Laboratories, 15 µL) was added, the mixture was incubated at 37°C for 100 min, the absorbance at 450 nm was measured by an absorbance spectrometer (manufactured by Molecular Devices, SPECTRA MAX 190), and the number of viable cells was measured by subtracting the absorbance of the medium alone.

[2] = tested on: human cervical cancer cell line HeLa; test: Cell proliferation test using various anticancer drugs; conditions: DAG 0.030% medium; for cell density: 5 days later
Procedure: This aqueous solution was sterilized at 121°C for 20 min in an autoclave. […] The anticancer drug used was Adriamycin (manufactured by WAKO), Paclitaxel (manufactured by WAKO) or Mitomycin C (manufactured by WAKO).
Successively, this plate was cultured by being stood still in a CO2 incubator (37°C, 5% CO2) for 7 days. After culturing for 3, 5, 7 days, to the culture medium was added a WST-8 solution (manufactured by DOJINDO Laboratories, 20 µL), and the mixture was incubated at 37°C for 100 min. The absorbance at 450 nm was measured by an absorbance spectrometer (manufactured by Molecular Devices, SPECTRA MAX 190), and the number of viable cells was measured by subtracting the absorbance of the medium alone. The culture medium containing the cells after 5 days of culture was stirred with a pipette and the obtained stirred solution (20 µL) was mixed with Trypan Blue stain 0.4% (manufactured by Invitrogen, 20 µL) and the cell density was measured under a microscope.

[3] = tested on: human cervical cancer cell line HeLa; test: Comparison with single layer culture method in cell proliferation test using anticancer drug; conditions: day 4
Procedure: This aqueous solution was sterilized at 121°C for 20 min in an autoclave. […] Each plate was cultured by being stood still in a CO2 incubator (37°C, 5% CO2). […] The anticancer drug used was Adriamycin (manufactured by WAKO), Paclitaxel (manufactured by WAKO) or Mitomycin C (manufactured by WAKO). To the culture medium on day 4 was added an ATP reagent (150 µL) (CellTiter-Glo (registered trade mark) Luminescent Cell Viability Assay, manufactured by Promega) to give a suspension, which was stood for about 10 min at room temperature, and the luminescence intensity (RLU value) was measured by FlexStation3 (manufactured by Molecular Devices), and the number of viable cells was measured by subtracting the luminescence value of the medium alone. For WST-8 measurement, a WST-8 solution (manufactured by DOJINDO Laboratories, 15 µL) was added, the mixture was incubated at 37°C for 100 min, the absorbance at 450 nm was measured by an absorbance spectrometer (manufactured by Molecular Devices, SPECTRA MAX 190), and the number of viable cells was measured by subtracting the absorbance of the medium alone.

[4] = agent 1 µM, deacylated gellan gum addition group (0.015%)
[5] = agent 1 µM, single layer culture group
[6] = agent 10 µM, deacylated gellan gum addition group (0.015%)
[7] = agent 10 µM, single layer culture group
[8] = agent 0.2 µM, deacylated gellan gum addition group (0.015%)
[9] = agent 0.2 µM, single layer culture group
[10] = agent 2 µM, deacylated gellan gum addition group (0.015%)
[11] = agent 2 µM, single layer culture group
[12] = agent 100 µM, deacylated gellan gum addition group (0.015%)
[13] = agent 100 µM, single layer culture group
[14] = drug 0.005 µM, deacylated gellan gum addition group (0.015%)
[15] = drug 0.005 µM, single layer culture group
[16] = drug 0.05 µM, deacylated gellan gum addition group (0.015%)
[17] = drug 0.05 µM, single layer culture group
[18] = drug 0.5 µM, deacylated gellan gum addition group (0.015%)
[19] = drug 0.5 µM, single layer culture group

SMILES: Cc1c2oc3c(C)ccc(C(=O)N[C@@H]4C(=O)N[C@H](C(C)C)C(=O)N5CCC[C@H]5C(=O)N(C)CC(=O)N(C)[C@@H](C(C)C)C(=O)O[C@@H]4C)c3nc-2c(C(=O)N[C@@H]2C(=O)N[C@H](C(C)C)C(=O)N3CCC[C@H]3C(=O)N(C)CC(=O)N(C)[C@@H](C(C)C)C(=O)O[C@@H]2C)c(N)c1=O [Actinomycin D] (I: T[dV]P[Sar][NMeV] / II: T[dV]P[Sar][NMeV]; ester I:1-I:C, II:1-II:C; linker I:N-II:N via Actinocin(9to1))
- % Control value of the RLU value (ATP measurement) [1, 4]: 4 % Control
- % Control value of the absorbance at 450 nm (WST-8 measurement) [1, 4]: 3 % Control
- % Control value of the RLU value (ATP measurement) [1, 5]: 2 % Control
- % Control value of the absorbance at 450 nm (WST-8 measurement) [1, 5]: 2 % Control
- % Control value of the RLU value (ATP measurement) [1, 6]: 6 % Control
- % Control value of the absorbance at 450 nm (WST-8 measurement) [1, 6]: 12 % Control
- % Control value of the RLU value (ATP measurement) [1, 7]: 2 % Control
- % Control value of the absorbance at 450 nm (WST-8 measurement) [1, 7]: 4 % Control

SMILES: CC[C@@]1(O)C(=O)OCc2c1cc1n(c2=O)Cc2cc3ccccc3nc2-1 [Camptothecin]
- % Control value of the RLU value (ATP measurement) [1, 8]: 27 % Control
- % Control value of the absorbance at 450 nm (WST-8 measurement) [1, 8]: 24 % Control
- % Control value of the RLU value (ATP measurement) [1, 9]: 63 % Control
- % Control value of the absorbance at 450 nm (WST-8 measurement) [1, 9]: 68 % Control
- % Control value of the RLU value (ATP measurement) [1, 10]: 11 % Control
- % Control value of the absorbance at 450 nm (WST-8 measurement) [1, 10]: 7 % Control
- % Control value of the RLU value (ATP measurement) [1, 11]: 44 % Control
- % Control value of the absorbance at 450 nm (WST-8 measurement) [1, 11]: 28 % Control

SMILES: C[C@@H]1C[C@@H]([C@H](O)CC2CC(=O)NC(=O)C2)C(=O)[C@@H](C)C1 [Cycloheximide]
- % Control value of the RLU value (ATP measurement) [1, 6]: 9 % Control
- % Control value of the absorbance at 450 nm (WST-8 measurement) [1, 6]: 4 % Control
- % Control value of the RLU value (ATP measurement) [1, 7]: 29 % Control
- % Control value of the absorbance at 450 nm (WST-8 measurement) [1, 7]: 21 % Control
- % Control value of the RLU value (ATP measurement) [1, 12]: 4 % Control
- % Control value of the absorbance at 450 nm (WST-8 measurement) [1, 12]: 1 % Control
- % Control value of the RLU value (ATP measurement) [1, 13]: 9 % Control
- % Control value of the absorbance at 450 nm (WST-8 measurement) [1, 13]: 7 % Control

SMILES: C[C@@H]1C[C@H]2[C@@H]3CCC4=CC(=O)C=C[C@]4(C)[C@@]3(F)[C@@H](O)C[C@]2(C)[C@@]1(O)C(=O)CO [Dexamethasone]
- % Control value of the RLU value (ATP measurement) [1, 4]: 232 % Control
- % Control value of the absorbance at 450 nm (WST-8 measurement) [1, 4]: 184 % Control
- % Control value of the absorbance at 450 nm (WST-8 measurement) [1, 5]: 89 % Control
- % Control value of the RLU value (ATP measurement) [1, 6]: 241 % Control
- % Control value of the absorbance at 450 nm (WST-8 measurement) [1, 6]: 173 % Control
- % Control value of the RLU value (ATP measurement) [1, 7]: 116 % Control
- % Control value of the absorbance at 450 nm (WST-8 measurement) [1, 7]: 92 % Control

SMILES: COc1cc([C@@H]2c3cc4c(cc3[C@@H](O[C@@H]3O[C@@H]5CO[C@@H](C)O[C@H]5[C@H](O)[C@H]3O)[C@H]3COC(=O)[C@H]23)OCO4)cc(OC)c1O [Etoposide]
- % Control value of the RLU value (ATP measurement) [1, 4]: 35 % Control
- % Control value of the absorbance at 450 nm (WST-8 measurement) [1, 4]: 39 % Control
- % Control value of the RLU value (ATP measurement) [1, 5]: 64 % Control
- % Control value of the absorbance at 450 nm (WST-8 measurement) [1, 5]: 68 % Control
- % Control value of the RLU value (ATP measurement) [1, 6]: 24 % Control
- % Control value of the absorbance at 450 nm (WST-8 measurement) [1, 6]: 23 % Control
- % Control value of the RLU value (ATP measurement) [1, 7]: 65 % Control
- % Control value of the absorbance at 450 nm (WST-8 measurement) [1, 7]: 63 % Control

SMILES: CO[C@@]12[C@H](COC(N)=O)C3=C(C(=O)C(C)=C(N)C3=O)N1C[C@@H]1N[C@@H]12 [Mitomycin C]
- cell density ([2]; drug 0.01 µM): 1.0 10^4 cells/mL
- cell number (absorbance at 450 nm, WST-8) ([2]; drug 0.01 µM, day 3): 0.089
- cell number (absorbance at 450 nm, WST-8) ([2]; drug 0.01 µM, day 5): 0.016
- cell number (absorbance at 450 nm, WST-8) ([2]; drug 0.01 µM, day 7): < 0
- cell density ([2]; drug 0.1 µM): 0.4 10^4 cells/mL
- cell number (absorbance at 450 nm, WST-8) ([2]; drug 0.1 µM, day 3): 0.032
- cell number (absorbance at 450 nm, WST-8) ([2]; drug 0.1 µM, day 5): < 0
- cell number (absorbance at 450 nm, WST-8) ([2]; drug 0.1 µM, day 7): < 0
- cell density ([2]; drug 1 µM): 0.1 10^4 cells/mL
- cell number (absorbance at 450 nm, WST-8) ([2]; drug 1 µM, day 3): < 0
- cell number (absorbance at 450 nm, WST-8) ([2]; drug 1 µM, day 5): < 0
- cell number (absorbance at 450 nm, WST-8) ([2]; drug 1 µM, day 7): < 0
- % Control value of the RLU value (ATP measurement) [3, 14]: 83 % Control
- % Control value of the absorbance at 450 nm (WST-8 measurement) [3, 14]: 94 % Control
- % Control value of the RLU value (ATP measurement) [3, 15]: 99 % Control
- % Control value of the absorbance at 450 nm (WST-8 measurement) [3, 15]: 101 % Control
- % Control value of the RLU value (ATP measurement) [3, 16]: 48 % Control
- % Control value of the absorbance at 450 nm (WST-8 measurement) [3, 16]: 37 % Control
- % Control value of the RLU value (ATP measurement) [3, 17]: 89 % Control
- % Control value of the absorbance at 450 nm (WST-8 measurement) [3, 17]: 83 % Control
- % Control value of the RLU value (ATP measurement) [3, 18]: 29 % Control
- % Control value of the absorbance at 450 nm (WST-8 measurement) [3, 18]: 12 % Control
- % Control value of the RLU value (ATP measurement) [3, 19]: 86 % Control
- % Control value of the absorbance at 450 nm (WST-8 measurement) [3, 19]: 71 % Control
